Data as given in US20050222146A1, “N-substituted-n-sulfonylaminocyclopropane compounds and pharmaceutical use thereof” (priority 2003, published 2005).

Experiments:
aggrecanase-1 = biological target: T1, aggrecanase-1 (Homo sapiens, UniProt O75173); assay: Aggrecanase-1 inhibitory action, Particle Assay (GAG release from aggrecan-containing polyacrylamide particles); type: biochemical; conditions: 37° C. for 15 hr, read-out: Experimental Example 1 IC50 AG1
T1 sequence (O75173 213-837): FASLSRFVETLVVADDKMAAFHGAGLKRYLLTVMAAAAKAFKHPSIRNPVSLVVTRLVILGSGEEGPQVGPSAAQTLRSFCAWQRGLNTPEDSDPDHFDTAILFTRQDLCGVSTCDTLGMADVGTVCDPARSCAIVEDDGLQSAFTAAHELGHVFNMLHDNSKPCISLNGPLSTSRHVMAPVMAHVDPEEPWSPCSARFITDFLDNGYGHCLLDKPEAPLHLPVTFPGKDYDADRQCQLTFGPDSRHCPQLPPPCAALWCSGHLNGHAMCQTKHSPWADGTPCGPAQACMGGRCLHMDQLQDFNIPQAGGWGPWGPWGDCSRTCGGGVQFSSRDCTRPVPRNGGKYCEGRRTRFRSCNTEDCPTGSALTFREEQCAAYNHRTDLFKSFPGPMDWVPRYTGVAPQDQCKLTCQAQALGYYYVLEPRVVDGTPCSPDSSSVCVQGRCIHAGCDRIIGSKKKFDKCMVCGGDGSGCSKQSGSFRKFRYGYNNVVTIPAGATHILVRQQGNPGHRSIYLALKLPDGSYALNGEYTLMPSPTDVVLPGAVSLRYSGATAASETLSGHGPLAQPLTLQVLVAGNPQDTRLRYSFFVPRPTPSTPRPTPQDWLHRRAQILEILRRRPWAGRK
In short: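 IC50 (μM) derived from % inhibition, referenced to enzyme-free and inhibitor-free wells, of GAG release read as 1,9-dimethylmethylene blue absorbance at 595 nm (chondroitin sulfate standard). Substrate: aggrecan-bearing polyacrylamide particles, exposed to enzyme plus compound in Tris-HCl for 15 hr at 37 °C.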

MMP-1 = biological target: T2, MMP-1 (Homo sapiens, UniProt P03956); assay: MMP-1 inhibitory action, Type I collagen Activity Measurement kit (FITC-labeled collagen type I); type: biochemical; conditions: 37° C. for 3 hr, read-out: Experimental Example 2 IC50 MMP1
T2 sequence (P03956 100-469): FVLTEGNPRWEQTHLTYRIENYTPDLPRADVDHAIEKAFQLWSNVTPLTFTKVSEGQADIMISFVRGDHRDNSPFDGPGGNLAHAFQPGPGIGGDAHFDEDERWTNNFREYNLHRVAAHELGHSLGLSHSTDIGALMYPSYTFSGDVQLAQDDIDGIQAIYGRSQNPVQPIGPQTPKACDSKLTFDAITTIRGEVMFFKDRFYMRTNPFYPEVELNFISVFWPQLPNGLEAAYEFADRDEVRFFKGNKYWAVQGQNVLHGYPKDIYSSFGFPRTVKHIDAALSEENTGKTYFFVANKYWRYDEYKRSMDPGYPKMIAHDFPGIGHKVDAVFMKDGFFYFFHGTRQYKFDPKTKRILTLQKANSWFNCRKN

| Structure (SMILES) | IC50 (aggrecanase-1) | IC50 (MMP-1) |
| --- | --- | --- |
| NC(=O)CN(C1(C(=O)O)C[C@H]1c1ccccc1)S(=O)(=O)c1ccc(-c2ccc(Cl)cc2)cc1 (stereo in doubt) [Example 1-36, (1R*,2S)-1-[carbamoylmethyl-(4′-chloro-biphenyl-4-sulfonyl)-amino]-2-phenyl-cyclopropanecarboxylic acid] | < 1000 nM | ≥ 10 µM |
| O=C(O)CN([C@]1(C(=O)O)C[C@H]1c1ccccc1)S(=O)(=O)c1ccc(-c2ccc(Cl)cc2)cc1 [Example 1-2, (1R,2S)-1-[carboxymethyl-(4′-chloro-biphenyl-4-sulfonyl)-amino]-2-phenyl-cyclopropanecarboxylic acid] | < 100 nM | ≥ 10 µM |
| COc1cccc([C@@H]2CC2(C(=O)O)N(CC(=O)O)S(=O)(=O)c2ccc(-c3ccc(Cl)cc3)cc2)c1 (stereo in doubt) [Example 1-21, (1R*,2S)-1-[carboxymethyl-(4′-chloro-biphenyl-4-sulfonyl)-amino]-2-(3-methoxy-phenyl)-cyclopropanecarboxylic acid] | < 1000 nM | ≥ 10 µM |
| O=C(O)CN([C@]1(C(=O)O)C[C@H]1c1c(Cl)cccc1Cl)S(=O)(=O)c1ccc(-c2ccc(Cl)cc2)cc1 (relative stereo) [Example 1-29, (1R*,2S*)-1-[carboxymethyl-(4′-chloro-biphenyl-4-sulfonyl)-amino]-2-(2,6-dichloro-phenyl)-cyclopropanecarboxylic acid] | < 1000 nM | ≥ 10 µM |
| O=C(O)C1(N(Cc2noc(=O)[nH]2)S(=O)(=O)c2ccc(-c3ccc(Cl)cc3)cc2)CC1c1ccccc1 (stereo not drawn) [Example 1-64, (R*,2S*)-1-[(4′-chlorobiphenyl-4-sulfonyl)-(5-oxo-4,5-dihydro[1.2.4]oxadiazol-3-ylmethyl)-amino]-2-phenylcyclopropanecarboxylic acid] | < 100 nM | ≥ 10 µM |
| N#Cc1ccc([C@@H]2C[C@@]2(C(=O)O)N(CC(=O)O)S(=O)(=O)c2ccc(-c3ccc(Cl)cc3)cc2)cc1 (relative stereo) [Example 1-30, (1R*,2S*)-1-[carboxymethyl-(4′-chloro-biphenyl-4-sulfonyl)-amino]-2-(4-cyano-phenyl)-cyclopropanecarboxylic acid] | < 1000 nM | ≥ 10 µM |
| CC(C)(C)OC(=O)N1CCC(Oc2cccc([C@H]3C[C@]3(C(=O)O)N(CC(=O)O)S(=O)(=O)c3ccc(-c4ccc(Cl)cc4)cc3)c2)CC1 (relative stereo) [Example 1-67, 4-(3-{(1R*,2S*)-2-Carboxy-2-[carboxymethyl-(4′-chloro-biphenyl-4-sulfonyl)-amino]-cyclopropyl}-phenoxy)-piperidine-1-carboxylic acid tert-butyl ester] | < 100 nM | ≥ 10 µM |
| CC(C)(CN([C@]1(C(=O)O)C[C@H]1c1ccccc1)S(=O)(=O)c1ccc(-c2ccc(Cl)cc2)cc1)C(=O)O (relative stereo) [Example 1-37, (1R*,2S*)-1-[(2-carboxy-2-methyl-propyl)-(4′-chloro-biphenyl-4-sulfonyl)-amino]-2-phenyl-cyclopropanecarboxylic acid] | < 1000 nM | ≥ 10 µM |
| O=C(O)c1ccc(CN([C@]2(C(=O)O)C[C@H]2c2ccccc2)S(=O)(=O)c2ccc(-c3ccc(Cl)cc3)cc2)o1 (relative stereo) [Example 1-55, 5-{[((1R*,2S*)-1-carboxy-2-phenyl-cyclopropyl)-(4′-chloro-biphenyl-4-sulfonyl)-amino]-methyl}-furan-2-carboxylic acid] | < 1000 nM | ≥ 10 µM |
| O=C(O)CN([C@]1(C(=O)O)C[C@H]1c1cccc(O)c1)S(=O)(=O)c1ccc(-c2ccc(Cl)cc2)cc1 (relative stereo) [Example 1-66, (1R*,2S*)-1-[carboxymethyl-(4′-chloro-biphenyl-4-sulfonyl)-amino]-2-(3-hydroxy-phenyl)-cyclopropanecarboxylic acid] | < 100 nM | ≥ 10 µM |
| CC(C)(C)OC(=O)N1CCC([C@H]2C[C@]2(C(=O)O)N(Cc2cccc(C(=O)O)c2)S(=O)(=O)c2ccc(-c3ccc(Cl)cc3)cc2)CC1 (relative stereo) [Example 1-70, 4-{(1R*,2S*)-2-carboxy-2-[(3-carboxy-benzyl)-(4′-chloro-biphenyl-4-sulfonyl)-amino]-cyclopropyl}-piperidin-1-carboxylic acid tert-butyl ester] | < 1000 nM | ≥ 10 µM |
| O=C(O)CN([C@]1(C(=O)O)C[C@H]1c1cccc(Cc2ccccc2)c1)S(=O)(=O)c1ccc(-c2ccc(Cl)cc2)cc1 (relative stereo) [Example 1-44, (1R*, 2S*)-2-(3-benzyl-phenyl)-1-[carboxymethyl-(4′-chloro-biphenyl-4-sulfonyl)-amino]-cyclopropanecarboxylic acid] | < 100 nM | ≥ 10 µM |
| Cc1ccccc1[C@@H]1C[C@@]1(C(=O)O)N(CC(=O)O)S(=O)(=O)c1ccc(-c2ccc(Cl)cc2)cc1 (relative stereo) [Example 1-19, (1R*,2S*)-1-[carboxymethyl-(4′-chloro-biphenyl-4-sulfonyl)-amino]-2-(2-methyl-phenyl)-cyclopropanecarboxylic acid] | < 1000 nM | ≥ 10 µM |
| O=C(O)CN([C@]1(C(=O)O)C[C@H]1c1cccc(C(F)(F)F)c1)S(=O)(=O)c1ccc(-c2ccc(Cl)cc2)cc1 (relative stereo) [Example 1-34, (1R*,2S*)-1-[carboxymethyl-(4′-chloro-biphenyl-4-sulfonyl)-amino]-2-(3-trifluoromethyl-phenyl)-cyclopropanecarboxylic acid] | < 100 nM | ≥ 10 µM |
| O=C(O)CN([C@]1(C(=O)O)C[C@H]1c1cc(Cl)ccc1C(F)(F)F)S(=O)(=O)c1ccc(-c2ccc(Cl)cc2)cc1 (relative stereo) [Example 1-35, (1R*,2S*)-1-[carboxymethyl-(4′-chloro-biphenyl-4-sulfonyl)-amino]-2-(5-chloro-2-trifluoromethyl-phenyl)-cyclopropanecarboxylic acid] | < 1000 nM | ≥ 10 µM |

More lines, now with the values ahead:

| IC50 (aggrecanase-1) | IC50 (MMP-1) | Structure (SMILES) |
| --- | --- | --- |
| < 1000 nM | ≥ 10 µM | O=C(O)CCCN([C@]1(C(=O)O)C[C@H]1c1ccccc1)S(=O)(=O)c1ccc(-c2ccc(Cl)cc2)cc1 (relative stereo) [Example 1-93, (1R*,2S*)-1-[(3-carboxy-propyl)-(4′-chloro-biphenyl-4-sulfonyl)-amino]-2-phenyl-cyclopropanecarboxylic acid] |
| < 1000 nM | ≥ 10 µM | O=C(O)c1ncccc1CN([C@]1(C(=O)O)C[C@H]1c1ccccc1)S(=O)(=O)c1ccc(-c2ccc(Cl)cc2)cc1 (relative stereo) [Example 1-73, 3-{[((1R*, 2S*)-1-carboxy-2-phenyl-cyclopropyl)-(4′-chloro-biphenyl-4-sulfonyl)-amino]-methyl}-pyridin-2-carboxylic acid] |
| < 100 nM | ≥ 10 µM | O=C(O)c1cccc(CN([C@]2(C(=O)O)C[C@H]2c2cccc(OCCO)c2)S(=O)(=O)c2ccc(-c3ccc(Cl)cc3)cc2)c1 (relative stereo) [Example 1-88, 3-{[{(1R*,2S*)-1-carboxy-2-[3-(2-hydroxy-ethoxy)-phenyl]-cyclopropyl}-(4′-chloro-biphenyl-4-sulfonyl)-amino]-methyl}-benzoic acid] |
| < 1000 nM | ≥ 10 µM | O=C(O)c1cccc(CN([C@]2(C(=O)O)C[C@H]2c2ccccc2)S(=O)(=O)N2CCN(c3ccc(Cl)cc3)CC2)c1 (relative stereo) [Example 1-115, 3-({((1R*,2S*)-1-carboxy-2-phenyl-cyclopropyl)-[4-(4-chloro-phenyl)-piperazine-1-sulfonyl]-amino}-methyl)-benzoic acid] |
| < 100 nM | ≥ 10 µM | O=C(O)[C@@]1(N(CCNc2nnn[nH]2)S(=O)(=O)c2ccc(-c3ccc(Cl)cc3)cc2)C[C@H]1c1cccc(Oc2ccccc2)c1 (relative stereo) [Example 1-109, (1R*,2S*)-1-{(4′-chloro-biphenyl-4-sulfonyl)-[2-(1H-tetrazol-5-ylamino)-ethyl]-amino}-2-(3-phenoxy-phenyl)-cyclopropanecarboxylic acid] |
| < 100 nM | ≥ 10 µM | CNC(=O)c1cn(CCN([C@]2(C(=O)O)C[C@H]2c2ccccc2)S(=O)(=O)c2ccc(-c3ccc(Cl)cc3)cc2)cn1 (relative stereo) [Example 1-113, (R*,2S*)-1-{(4′-chloro-biphenyl-4-sulfonyl)-[2-(4-methylcarbamoyl-imidazol-1-yl)-ethyl]-amino}-2-phenyl-cyclopropanecarboxylic acid] |
